# Assay results reported in US12419858B2, “Salt of terphenyl compound” (Taiho Pharmaceutical Co., Ltd., priority 2019, dated 2025).
# Columns and labels:
# [1] = Solid stability test (accelerated test); settings: for Purity, variation (Y) − (X) / Total mass of analogous substance, variation (Y) − (X): 4 weeks at 60° C. sealed versus before storage; for solid stability (in words): 4 weeks at 60° C.; for solid stability (in words) / Purity, 4 weeks after storage at 60° C. on sealed condition (Y) / Total mass of analogous substance, 4 weeks after storage at 60° C. on sealed condition (Y): sealed; for Purity, 4 weeks after storage at 60° C. on sealed condition (Y) / Total mass of analogous substance, 4 weeks after storage at 60° C. on sealed condition (Y) / Purity, before storage (X) / Total mass of analogous substance, before storage (X): HPLC; for Purity, 4 weeks after storage at 60° C. on sealed condition (Y) / Total mass of analogous substance, 4 weeks after storage at 60° C. on sealed condition (Y): 4 weeks at 60° C./ambient humidity
# Protocol: Mass of analogous substance in the sample solution was measured by HPLC analysis.
# [2] = in vivo
# Protocol: Each drug was administered to the animal at a dose of 32 mg/5 mL/kg.
# [3] = Moisture absorption/desorption test; settings: 25° C.; for hygroscopicity / moisture absorption-desorption behaviour (in words): 5% RH to 95% RH and back; for weight change at maximum (moisture absorption/desorption): relative humidity from 5 to 95%
# Protocol: Moisture absorption/desorption test was carried out on the following test conditions. A dedicated quartz holder was filled with about 10 mg of sample, and a weight of the sample at each humidity was measured and recorded in a continuous manner under the following conditions.
smiles,measurement,setting,value
"CC(C)(O)Cc1ccc(-c2ccc(C(=O)N3CC[C@H](N)C3)cc2-c2ccc(C#N)c(F)c2)c(F)c1 [free form of Compound A, 4-[5-[(3S)-3-aminopyrrolidine-1-carbonyl]-2-[2-fluoro-4-(2-hydroxy-2-methyl-propyl)phenyl]phenyl]-2-fluoro-benzonitrile]","Purity, variation (Y) − (X)",[1],−0.37%
same,"Total mass of analogous substance, variation (Y) − (X)",[1],+0.37%
same,solid stability (in words),[1],poor solid stability
same,"Purity, 4 weeks after storage at 60° C. on sealed condition (Y)",[1],98.15%
same,"Total mass of analogous substance, 4 weeks after storage at 60° C. on sealed condition (Y)",[1],1.85%
same,"Purity, before storage (X)",[1],98.52%
same,"Total mass of analogous substance, before storage (X)",[1],1.48%
same,Cmax,"[2]; rat, in vivo, 32 mg/kg",2560 nM
same,Tmax,"[2]; rat, in vivo, 32 mg/kg",4 h
same,hygroscopicity / moisture absorption-desorption behaviour (in words),[3],had the characteristic of channel hydrate
same,hygroscopicity / moisture absorption-desorption behaviour (in words),[3]; listed as free form,characteristic of hygroscopicity
same,weight change at maximum (moisture absorption/desorption),[3],about +5.6 % w/w
"C/C=C/C=C/C(=O)O.CC(C)(O)Cc1ccc(-c2ccc(C(=O)N3CC[C@H](N)C3)cc2-c2ccc(C#N)c(F)c2)c(F)c1 [sorbic acid salt of Compound A, sorbic acid salt of 4-[5-[(3S)-3-aminopyrrolidine-1-carbonyl]-2-[2-fluoro-4-(2-hydroxy-2-methyl-propyl)phenyl]phenyl]-2-fluoro-benzonitrile]","Purity, variation (Y) − (X)",[1],−0.64%
same,"Total mass of analogous substance, variation (Y) − (X)",[1],+0.64%
same,solid stability (in words),[1],stable
same,"Purity, 4 weeks after storage at 60° C. on sealed condition (Y)",[1],97.99%
same,"Total mass of analogous substance, 4 weeks after storage at 60° C. on sealed condition (Y)",[1],2.01%
same,"Purity, before storage (X)",[1],98.63%
same,"Total mass of analogous substance, before storage (X)",[1],1.37%
same,AUC,"[2]; rats, dose of 32 mg/5 mL/kg",11.64 µM·h
same,Cmax,"[2]; rats, dose of 32 mg/5 mL/kg",2030 nM
same,Tmax,"[2]; rats, dose of 32 mg/5 mL/kg",2.3 h
same,hygroscopicity / moisture absorption-desorption behaviour (in words),[3],less adsorptive and/or disorptive of moisture
same,weight change at maximum (moisture absorption/desorption),[3],+1.9 % w/w
"CC(C)(O)Cc1ccc(-c2ccc(C(=O)N3CC[C@H](N)C3)cc2-c2ccc(C#N)c(F)c2)c(F)c1.O=C(O)c1ccccc1 [benzoic acid salt of Compound A, benzoic acid salt of 4-[5-[(3S)-3-aminopyrrolidine-1-carbonyl]-2-[2-fluoro-4-(2-hydroxy-2-methyl-propyl)phenyl]phenyl]-2-fluoro-benzonitrile]","Purity, variation (Y) − (X)",[1],+0.13%
same,"Total mass of analogous substance, variation (Y) − (X)",[1],−0.13%
same,solid stability (in words),[1],almost no analogous substance was generated
same,solid stability (in words),[1]; listed as benzoate,stable
same,"Purity, 4 weeks after storage at 60° C. on sealed condition (Y)",[1],98.06%
same,"Total mass of analogous substance, 4 weeks after storage at 60° C. on sealed condition (Y)",[1],1.94%
same,"Purity, before storage (X)",[1],97.93%
same,"Total mass of analogous substance, before storage (X)",[1],2.07%
same,Cmax,"[2]; rats, dose of 32 mg/5 mL/kg",2680 nM
same,Tmax,"[2]; rats, dose of 32 mg/5 mL/kg",2.7 h
same,hygroscopicity / moisture absorption-desorption behaviour (in words),[3],less adsorptive and/or disorptive of moisture
same,weight change at maximum (moisture absorption/desorption),[3],+0.7 % w/w
